From patent publication US11083735B2, “Methods for treating sleep disorders, sleep disturbances, and related symptoms using aminosterol compositions” (Enterin, Inc., priority 2017, dated 2021) come the findings set out here.

“And” between values parts separate entries of the source, which are not always exact repeats. Equal values may be shown once.

Data set [1] concerns patients with PD and constipation. As to conditions: in vivo.
Description: In Stage 2, 34 patients were evaluated. […] This dose was then maintained (“fixed dose”) for an additional 3-5 days. After the “fixed dose”, these patients were randomly assigned to either continued treatment at that dose or to a matching placebo, for an additional 4-6 days prior to a 2-week wash-out.
A second cohort of 19 patients received squalamine (ENT-01) escalating from 100 mg/day to a maximum of 250 mg/day without subsequent randomization to squalamine (ENT-01) or placebo. Criteria for dose selection and efficacy were identical to those used in the previous cohort.
Adverse events were coded using the current version of MedDRA. Severity of AEs were assessed by investigators according to CTCAE (v4.03): Grade 1 is labeled as Mild, Grade 2 as Moderate, and Grade 3 and above as Severe. […] The number (percentage) of subjects who experienced an AE during escalation and fixed dosing periods were summarized by dose level and overall for each stage. The denominator for calculating the percentages were based on the number of subjects ever exposed to each dose and overall.
Data set [2] relates to patients with PD. As to the kind of experiment: Phase 2 trial Stage 2: sleep diary (total sleep time, arm or leg thrashing / RBD). It is filed as in vivo, human. Here is the method: FIG. 18 is a chart of total sleep time in relation to squalamine dose. Total sleep time was obtained from the sleep diary by subtracting awake time during the night from total time spent in bed. Total sleep time per night was logged for each patient at baseline, each dosing period and at washout, and the means were determined. The light grey bar represents the baseline value for each cohort at a given dose level and the dark grey bar represents the value for the same cohort at the stated dose of squalamine (ENT-01; Kenterin™). The number of patients represented at each value are: Baseline, 33; 75 mg, 21; 100 mg, 28; 125 mg, 18; 150 mg, 15; 175 mg, 12; 200 mg, 7; 225 mg, 3; 250 mg, 2; washout, 33. P values were as follows: 75 mg, p=0.4; 100 mg, p=0.1; 125 mg, p=0.3; 150 mg, p=0.07; 175 mg, p=0.03; 200 mg, p=0.3; 225 mg, p=0.5; 250 mg, p=0.3; wash-out, p=0.04 (paired t test).
The frequency of arm or leg thrashing reported in the sleep diary diminished progressively from 2.2 episodes/week at baseline to 0 at maximal dose.
(5) Sleep Diary (participants completed a sleep diary on a daily basis throughout the study. The diaries included time into bed and estimated time to sleep as well as wake time and duration during the night.);
Exploratory end-points, in addition to constipation, included for example, (i) depression assessed using the Beck Depression Inventory (BDI-II) (Steer et al. 2000) and Unified Parkinson's Disease Rating Scale (UPDRS); (ii) cognition assessed using the Mini Mental State Examination (MMSE) (Palsteia et al. 2018), Unified Parkinson's Disease Rating Scale (UPDRS), and Trail Making Test (TMT); (iii) sleep and REM-behavior disorder (RBD) using a daily sleep diary, I-Button Temperature Assessment, a REM sleep behavior disorder (RBD) questionnaire (RBDQ) (Stiasny-Kolster et al. 2007), and the UPDRS; (iv) hallucinations assessed using the PD hallucinations questionnaire (PDHQ) (Papapetropoulos et al. 2008), the UPDRS, and direct questioning; (v) fatigue using the Parkinson's Disease Fatigue Scale (PFS-16) and the UPDRS; (vi) motor functions using the UPDRS; and (vii) non-motor functions using the UPDRS.

The test system of data set [3] is patients with PD and constipation. The data set can be described thus: Phase 2 trial Stage 1 (single escalating dose): prokinetic response (CSBM within 24 hours). It is filed as in vivo, human. The protocol: FIGS. 16A-16B show prokinetic activity of squalamine (ENT-01, a synthetic squalamine salt comprising squalamine as the active ion). […] Patients with baseline CSBM<1 required a higher dose (mean, 192 mg) of squalamine than patients with CSBM≥1 (mean, 120 mg).
Tolerability limits included diarrhea or vomiting.

Data set [4] relates to elderly patient with a sleep disorder. As to the kind of experiment: Example 1: person with sleep disturbance, oral squalamine (Kenterin), sleep diary and I-button wrist temperature. As to conditions: for % Change in Hours: 125 qod. It is filed as in vivo, human. The protocol:
An elderly patient with a sleep disorder was treated with squalamine to determine the efficacy of the drug for treating sleep disturbances. The patient was a person with a 10 year history of sleep disturbance and a history of constipation, anxiety, and anosmia for as long as they could remember. Their sleep was profoundly disturbed: they had difficulty falling asleep, awoke 3-4 times during the night, had vivid dreams and nightmares, spoke and screamed out loud during their sleep (REM-behavior disorder, RBD), often saw “apparitions” or people in the room (e.g., a cook in a top hat, priests and angels dressed in white). They slept with a night light on in an attempt to minimize these occurrences.
The patient was treated with oral squalamine (Kenterin™) starting at 100 mg qd and increasing to 200 mg qd. Sleep was monitored indirectly with the use of a temperature sensor (I-button) mounted on a wristband. The sensor was programed to record skin temperature at the wrist every 15 minutes 24 hrs a day. Data were downloaded every few weeks.
In other words, as the dose is increased, the hours of sleep increase, and as the dose was decreased, the hours of sleep decreased. The effect was immediate. Shown in FIG. 2 is the hours of sleep resulting following the following dosing schedule for squalamine: (1) 100 mg q.d., (2) 150 mg q.d., (3) 200 mg q.d., (4) 125 mg every third day, (5) 100 mg every third day, and (6) 125 mg q.o.d.
In other words, the patient was falling asleep more easily. […] Thus, not only does squalamine decrease delay in sleep onset and increase total sleep time, but it also has an effect on RBD and hallucinations, both of which occur as a result of Circadian rhythm dysfunction.

Data set [5] relates to Intrinsic primary afferent neurons (IPAN) of the jejunum. The data set can be described thus: IPAN patch clamp, jejunum with intact luminal epithelium. The arrangement: species or system mouse. As to conditions: lumen perfused with 30 μM squalamine; 5.5 before. Here is the method: Squalamine evoked bursts of action potential lasting for 10 to 30 min after application of a brief (20 ms) 50 μL puff of squalamine onto the epithelium.
To determine the mechanism by which squalamine stimulated intestinal motility, electrophysiological studies were conducted on single neurons within the colon or jejunum of WT mice, using published methods. Intrinsic primary afferent neurons (IPAN) of the jejunum were patch clamped from the adventitial surface, while the lumen of the jejunum was perfused with either Krebs's buffer or buffer containing 30 μM squalamine. The IPANs are multipolar neurons that receive sensory information from the lumen and then communicate with other divisions within the ENS to influence peristalsis as well as direct information rostrally.
In this experiment IPAN excitability was measured by stimulating the neuron with a single standard pulse, and counting the number of subsequent spontaneous discharges.
In general terms: In patch-clamp work, channel activity is measured electrically.

The mark [6] stands for this setting: 100 mg q3d, days 81-83, daily values and mean.
The mark [7] stands for this setting: 100 mg q3d, days 81-83, daily values and mean, mean.
Where [8] appears, read: 150 mg q3d, days 105-111, daily values and mean.
Where [9] appears, read: 150 mg q3d, days 105-111, daily values and mean, mean.
[10] abbreviates: 150 mg qod, days 100-104, daily values and mean.
[11] abbreviates: 150 mg qod, days 100-104, daily values and mean, mean.
[12] abbreviates: days 53-55: 175/200 mg, daily values and Mean 200.
[13] abbreviates: days 53-55: 175/200 mg, daily values and Mean 200, mean.

With `CC(C)[C@@H](CC[C@@H](C)[C@H]1CC[C@H]2[C@@H]3[C@H](O)C[C@H]4C[C@@H](NCCCNCCCCN)CC[C@]4(C)[C@H]3CC[C@]12C)OS(=O)(=O)O` (single isomer, unassigned; ent-01) [ENT-01], the “Eye infection, Moderate” value in data set [1] is reported as 0 n, %. In data set [2] (250 mg vs baseline), the “increase of total sleep time” value worked out at 18%. Besides, the Total sleep time in data set [2] (at 250 mg, baseline 7.1) was 8.4 h; in data set [2] (beyond 125 mg), “consistently higher than baseline”. The “improvement of arm or leg thrashing frequency” value in data set [2] (at maximal dose vs baseline) stood at 100%. In data set [2] (at maximal dose, baseline 2.2), the “frequency of arm or leg thrashing reported in the sleep diary” value was 0 episodes/week. Also, the cumulative response rate in data set [3] (25 mg) worked out at 25%; in data set [3] (200 mg (maximum)) it was 80%.
`CC(C)[C@@H](CC[C@@H](C)[C@H]1CC[C@H]2[C@@H]3[C@H](O)C[C@H]4C[C@@H](NCCCNCCCCN)CC[C@]4(C)[C@H]3CC[C@]12C)OS(=O)(=O)O` [squalamine]: the Delay is 30 min in data set [4] (setting [6]); 20 min and 30 min in data set [4] (125 mg q3d, days 69-80, daily values and mean); 25 min in data set [4] (125 mg q3d, days 69-80, daily values and mean, mean); 10 min and 15 min and 20 min in data set [4] (setting [8]); 14 min in data set [4] (setting [9]); 15 min and 20 min in data set [4] (setting [10]). Moreover, the Delay in data set [4] (setting [11]) is given as 17 min; in data set [4] (days 53-55: 175 mg (day 53), 200 mg (days 54-55), daily values and Mean 200), 20 min. Further, the Fragments awake is 40 min and 30 min in data set [4] (setting [6]); 36 min in data set [4] (setting [7]); 30 min and 20 min in data set [4] (after STOP, days 62-68, daily values and mean); 15 min and 30 min in data set [4] (setting [12]); 20 min in data set [4] (setting [13]). Also, the Total hrs sleep in data set [4] (setting [6]) is 6.75 h and 7 h; in data set [4] (setting [7]), 6.8 h; in data set [4] (setting [8]), 10 h and 9.50 h and 8.75 h and 9.75 h and 8 h; in data set [4] (setting [9]), 9.3 h; in data set [4] (setting [10]) it was 9 h and 8.5 h and 7.75 h and 10 h and 9.5 h; in data set [4] (setting [11]), 8.95 h. Also, the Total hrs sleep in data set [4] (100 qd (mg), pre (0) 7.5) is 7.9 h; in data set [4] (125 qod (mg)) it was 8.7 h; in data set [4] (150 qd (mg)) it was 8.8 h; in data set [4] (200 qd (mg), baseline 7.5) it was 9.1 h; in data set [4] (Post (0), after discontinuation of squalamine) it was 7.0 h; in data set [4] (setting [12]), 9.0 h and 9.25 h. Further, the Total hrs sleep in data set [4] (setting [13]) was 9.1 h; in data set [4] (off K, days 112-135, daily values and mean) it was 4.5 h. Also, the entries for the “% Change in Hours (from base)” value in data set [4] (100 qd), in data set [4] (150 qd) and in data set [4] (Post (0)) were “+5.3%”, “+17.3%” and −6.7%, respectively. In addition, the “% Change in Hours” value in data set [4] (from initial pre(0)) was “+16% from initial pre(0);”; in data set [4] (from post (0)), “+24.3% from post (0)”. The “diurnal rhythm (I-button recording, FIG. 7)” value in data set [4] (after an appropriate dose of squalamine) is “restored almost immediately”. The “diurnal rhythmicity (I-button, periodogram)” value in data set [4] (after intermittent treatment for several months) is given as “some diurnal rhythmicity was restored”. In data set [4] (after the first week of treatment), the “circadian rhythm (I-button, periodogram)” value is recorded as “still absent”. The “RBD (vivid dreams and nightmares) and frank visual hallucinations” value in data set [4] (on treatment, reappeared when medication was discontinued) is “disappeared on treatment”. For the same molecule, in data set [5], the “number of discharges stimulated by a single electrical impulse (IPAN excitability)” value worked out at 8.8.
